This is an account of results in article PMC9640990 (Frontiers in Pharmacology, 2022).

One series deals with MDR1 mRNA. Description: MDR1 mRNA expression in Caco-2 cells (qRT-PCR). It counts as cell-based. Particulars: 48 h pretreatment, bosentan 20 μM, GA 50 μM, PCA 50 μM, PCE 100 mg/ml.
Another series relates to BCRP mRNA. The series is described as follows: BCRP mRNA expression in Caco-2 cells (qRT-PCR). It counts as cell-based. Particulars: 48 h pretreatment, bosentan 20 μM, GA 50 μM, PCA 50 μM, PCE 100 mg/ml.
The target in a further series is T1, hOCT2 (Homo sapiens, UniProt O15244).
T1 construct: host or cells: S2
T1 sequence (O15244 1-555): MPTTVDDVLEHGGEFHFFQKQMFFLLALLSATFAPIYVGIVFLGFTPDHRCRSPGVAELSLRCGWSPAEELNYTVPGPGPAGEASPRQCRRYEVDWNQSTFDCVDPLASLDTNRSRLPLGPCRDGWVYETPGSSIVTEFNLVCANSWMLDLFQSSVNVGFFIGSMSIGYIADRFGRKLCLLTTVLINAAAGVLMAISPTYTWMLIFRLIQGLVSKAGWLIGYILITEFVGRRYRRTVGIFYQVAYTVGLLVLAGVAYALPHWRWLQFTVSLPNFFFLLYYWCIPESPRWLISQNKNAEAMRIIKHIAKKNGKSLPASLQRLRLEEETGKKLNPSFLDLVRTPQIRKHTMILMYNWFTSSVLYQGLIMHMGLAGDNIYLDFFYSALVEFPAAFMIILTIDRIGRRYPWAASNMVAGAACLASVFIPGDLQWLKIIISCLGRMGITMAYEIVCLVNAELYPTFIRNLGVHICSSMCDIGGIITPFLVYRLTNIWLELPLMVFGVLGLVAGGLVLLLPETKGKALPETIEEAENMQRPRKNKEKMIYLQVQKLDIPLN
Description: Inhibition of hOCT2-mediated uptake of 14C-TEA in hOCT2-S2 cells. It counts as cell-based. The text has this:
Considering the relative exposure characteristics, GA and PCA were selected as PK-marker and Q-marker components of PCE in previous studies ([Ma et al., 2015]; [Ma et al., 2016]; [Li et al., 2021b]). In this study, we investigated the concentration-dependent inhibitions of GA and PCA on multiple transporters, including OAT1, OAT3, OCT2, MDR1, and BCRP. Stably expressing cell lines of hOAT1-MDCK, hOAT3-MDCK, hOCT2-S2, hMDR1-MDCK, hBCRP-MDCK, and their mock cells were obtained from Japan Fuji Biomedical Co., Ltd. The cells were maintained in DMEM (Sigma) supplemented with 10% FCS, 1% non-essential amino acids (Sigma), and 2% L-glutamine. The medium for the Transwell® plates (Corning Costar, Cambridge, MA, United States) was supplemented with 0.1% gentamicin. […]
Briefly, the hOAT1-MDCK, hOAT3-MDCK, and hOCT2-S2 cells were trypsinized and suspended in the culture medium to provide a density of 1.5 × 10^5 cells/ml. […] The radioactive intensity of ^14C-PAH, ^3H-ES, and ^14C-TEA was measured using a Tri-Carb 2910TR scintillator (PerkinElmer, United States). Fluorescence was measured at 485 nm (excitation) and 546 nm (emission) for rhodamine 123, and 425 nm (excitation) and 528 nm (emission) for lucifer yellow. IC50 values were determined by employing GraphPad Prism 9.

The next series addresses hOAT3 (Homo sapiens, UniProt Q8TCC7). The series is described as follows: Inhibition of hOAT3-mediated uptake of 3H-ES in hOAT3-MDCK cells. It counts as cell-based. The settings on record: hOAT3-MDCK cells. The text has this: Considering the relative exposure characteristics, GA and PCA were selected as PK-marker and Q-marker components of PCE in previous studies ([Ma et al., 2015]; [Ma et al., 2016]; [Li et al., 2021b]). In this study, we investigated the concentration-dependent inhibitions of GA and PCA on multiple transporters, including OAT1, OAT3, OCT2, MDR1, and BCRP. Stably expressing cell lines of hOAT1-MDCK, hOAT3-MDCK, hOCT2-S2, hMDR1-MDCK, hBCRP-MDCK, and their mock cells were obtained from Japan Fuji Biomedical Co., Ltd. The cells were maintained in DMEM (Sigma) supplemented with 10% FCS, 1% non-essential amino acids (Sigma), and 2% L-glutamine. The medium for the Transwell® plates (Corning Costar, Cambridge, MA, United States) was supplemented with 0.1% gentamicin. Membrane filters were placed in a 12 mm well with 1.5 and 0.5 ml of culture medium in the basolateral and apical compartments, respectively. Cells were cultured at 37°C in an atmosphere of 5% CO2. The inhibition experiments were adapted from previous methods with minor modifications ([Li et al., 2021a]; [2021b]).
Briefly, the hOAT1-MDCK, hOAT3-MDCK, and hOCT2-S2 cells were trypsinized and suspended in the culture medium to provide a density of 1.5 × 10^5 cells/ml. After incubating for 48 h, the cells were washed twice with preheated DPBS and then pre-incubated with DPBS for 10 min at 37°C. 500 µl of DPBS containing probe substrates was added to initiate the uptake in the presence or absence of GA, PCA or positive inhibitors. The hMDR1-MDCK and hBCRP-MDCK cells were suspended at a density of 4.0 × 10^5 cells/ml. After cultivation for 7 days, cells were washed twice and equilibrated for 30 min at 37°C with the pre-warmed HBSS buffer. […] The radioactive intensity of ^14C-PAH, ^3H-ES, and ^14C-TEA was measured using a Tri-Carb 2910TR scintillator (PerkinElmer, United States). Fluorescence was measured at 485 nm (excitation) and 546 nm (emission) for rhodamine 123, and 425 nm (excitation) and 528 nm (emission) for lucifer yellow. IC50 values were determined by employing GraphPad Prism 9.

The conditions of series [1]: rats; approximately.
For series [2] the following is noted: 1990, cited from earlier work.

hOAT3, sequence (Q8TCC7 whole entry): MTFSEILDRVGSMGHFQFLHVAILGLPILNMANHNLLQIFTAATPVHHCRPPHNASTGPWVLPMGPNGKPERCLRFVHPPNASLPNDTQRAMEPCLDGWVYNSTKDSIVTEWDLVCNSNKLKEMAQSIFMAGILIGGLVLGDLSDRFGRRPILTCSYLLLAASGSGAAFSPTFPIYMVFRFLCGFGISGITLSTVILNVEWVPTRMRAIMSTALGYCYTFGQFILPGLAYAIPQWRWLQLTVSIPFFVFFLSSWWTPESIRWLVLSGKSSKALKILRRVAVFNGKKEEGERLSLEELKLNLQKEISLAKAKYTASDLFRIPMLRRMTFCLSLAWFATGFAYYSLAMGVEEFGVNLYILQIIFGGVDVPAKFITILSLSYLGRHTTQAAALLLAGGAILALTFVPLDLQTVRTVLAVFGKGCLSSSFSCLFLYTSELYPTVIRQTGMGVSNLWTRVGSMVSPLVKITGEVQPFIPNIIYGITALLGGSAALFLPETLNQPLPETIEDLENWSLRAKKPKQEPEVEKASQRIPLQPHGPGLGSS
Description for BCRP mRNA: (§1) After the incubation period, cells were harvested from the Transwell inserts for RNA extraction. […] Real-time quantitative PCR (qRT-PCR) was performed on an ABI Prism 7900HT Sequence Detection System (Applied Biosystems, Foster City, CA, United States) for the analysis of MDR1 and BCRP genes. Primers of housekeeping gene β-actin was used as internal controls. […] The relative gene expression levels were determined using the comparative CT method (ΔΔCT method). The cut-off CT was set at 35 cycles for all analyses. An arbitrary classification system was assigned to the data, designating relative expression levels >2 as high mRNA expression, levels between 2 and 1 as moderate mRNA expression, levels between 1 and 0.1 as low mRNA expression and levels <0.1 as unexpressed.
Description for MDR1 mRNA: as §1

In the case of `COc1ccccc1Oc1c(NS(=O)(=O)c2ccc(C(C)(C)C)cc2)nc(-c2ncccn2)nc1OCCO` [bosentan, Bosentan], the “increase of MDR1 (P-gp) mRNA expression” value in the series on MDR1 mRNA was determined as 7.36 fold. Moreover, the “increase of BCRP mRNA expression” value in the series on BCRP mRNA was 4.31 fold.

In the case of `CO[C@H]1/C=C/O[C@@]2(C)Oc3c(C)c(O)c4c(O)c(c(/C=N/N5CCN(C)CC5)c(O)c4c3C2=O)NC(=O)/C(C)=C\C=C\[C@H](C)[C@H](O)[C@@H](C)[C@@H](O)[C@@H](C)[C@H](OC(C)=O)[C@@H]1C` [rifampicin], at hOCT2, the “effect of positive inhibitor on hOCT2” value is given as “Significant inhibitory effects”.

On to `CN/C(=N/CCSCc1nc[nH]c1C)NC#N` [cimetidine], for which, on hOAT3, the “effect of positive inhibitor on hOAT3” value is listed as “Significant inhibitory effects”.

As to `O=C(O)c1cn(C2CC2)c2cc(N3CCNCC3)c(F)cc2c1=O` [CIP, ciprofloxacin], the “reduction of circulating CIP by concurrent use of PCE” value in series [1] is on record as 40%–50%. Further, in series [2] (ref Rohwedder et al., Haslam et al., 2011), the “share of an intravenous dose eliminated into the intestine” value is “Approximately 20%”. For the same molecule, the “excreted in unchanged form into the urine” value in series [2] (ref Vance-Bryan et al.) is “Approximately 60%”.
